Here are results for 14 compounds from patent publication US9101616B2, “Aryl substituted carboxamide derivatives as calcium or sodium channel blockers” (RaQualia Pharma Inc., priority 2009, dated 2015).

As usually defined, the IC50 is the concentration that gives 50% inhibition.

One assay relates to rats. Conditions: rat, in vivo; cited from earlier work.
The next assay concerns chronic pain. As to conditions: in vivo; cited from earlier work.
For assay [1], the target named is T1, human T-type channel alpha-1H (CaV 3.2) (Homo sapiens, UniProt O95180).
T1 construct: expressed in transfected cells; host or cells: HEK 293
Nature of the assay: Ca2+ Influx Assay (cell-based fluorescent, FDSS). Conditions: HEK 293 cells expressing human CaV 3.2. The method in brief: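 HEK293 cells stably expressing human CaV3.2, loaded with Fluo-4-AM 1 h at 37 °C. Compound added 4.5 min before potassium ionophore, then high-K+ depolarization with fluorescence monitored on FDSS. IC50 from 7-point dose-response, duplicate wells.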

T1 sequence (O95180 whole entry): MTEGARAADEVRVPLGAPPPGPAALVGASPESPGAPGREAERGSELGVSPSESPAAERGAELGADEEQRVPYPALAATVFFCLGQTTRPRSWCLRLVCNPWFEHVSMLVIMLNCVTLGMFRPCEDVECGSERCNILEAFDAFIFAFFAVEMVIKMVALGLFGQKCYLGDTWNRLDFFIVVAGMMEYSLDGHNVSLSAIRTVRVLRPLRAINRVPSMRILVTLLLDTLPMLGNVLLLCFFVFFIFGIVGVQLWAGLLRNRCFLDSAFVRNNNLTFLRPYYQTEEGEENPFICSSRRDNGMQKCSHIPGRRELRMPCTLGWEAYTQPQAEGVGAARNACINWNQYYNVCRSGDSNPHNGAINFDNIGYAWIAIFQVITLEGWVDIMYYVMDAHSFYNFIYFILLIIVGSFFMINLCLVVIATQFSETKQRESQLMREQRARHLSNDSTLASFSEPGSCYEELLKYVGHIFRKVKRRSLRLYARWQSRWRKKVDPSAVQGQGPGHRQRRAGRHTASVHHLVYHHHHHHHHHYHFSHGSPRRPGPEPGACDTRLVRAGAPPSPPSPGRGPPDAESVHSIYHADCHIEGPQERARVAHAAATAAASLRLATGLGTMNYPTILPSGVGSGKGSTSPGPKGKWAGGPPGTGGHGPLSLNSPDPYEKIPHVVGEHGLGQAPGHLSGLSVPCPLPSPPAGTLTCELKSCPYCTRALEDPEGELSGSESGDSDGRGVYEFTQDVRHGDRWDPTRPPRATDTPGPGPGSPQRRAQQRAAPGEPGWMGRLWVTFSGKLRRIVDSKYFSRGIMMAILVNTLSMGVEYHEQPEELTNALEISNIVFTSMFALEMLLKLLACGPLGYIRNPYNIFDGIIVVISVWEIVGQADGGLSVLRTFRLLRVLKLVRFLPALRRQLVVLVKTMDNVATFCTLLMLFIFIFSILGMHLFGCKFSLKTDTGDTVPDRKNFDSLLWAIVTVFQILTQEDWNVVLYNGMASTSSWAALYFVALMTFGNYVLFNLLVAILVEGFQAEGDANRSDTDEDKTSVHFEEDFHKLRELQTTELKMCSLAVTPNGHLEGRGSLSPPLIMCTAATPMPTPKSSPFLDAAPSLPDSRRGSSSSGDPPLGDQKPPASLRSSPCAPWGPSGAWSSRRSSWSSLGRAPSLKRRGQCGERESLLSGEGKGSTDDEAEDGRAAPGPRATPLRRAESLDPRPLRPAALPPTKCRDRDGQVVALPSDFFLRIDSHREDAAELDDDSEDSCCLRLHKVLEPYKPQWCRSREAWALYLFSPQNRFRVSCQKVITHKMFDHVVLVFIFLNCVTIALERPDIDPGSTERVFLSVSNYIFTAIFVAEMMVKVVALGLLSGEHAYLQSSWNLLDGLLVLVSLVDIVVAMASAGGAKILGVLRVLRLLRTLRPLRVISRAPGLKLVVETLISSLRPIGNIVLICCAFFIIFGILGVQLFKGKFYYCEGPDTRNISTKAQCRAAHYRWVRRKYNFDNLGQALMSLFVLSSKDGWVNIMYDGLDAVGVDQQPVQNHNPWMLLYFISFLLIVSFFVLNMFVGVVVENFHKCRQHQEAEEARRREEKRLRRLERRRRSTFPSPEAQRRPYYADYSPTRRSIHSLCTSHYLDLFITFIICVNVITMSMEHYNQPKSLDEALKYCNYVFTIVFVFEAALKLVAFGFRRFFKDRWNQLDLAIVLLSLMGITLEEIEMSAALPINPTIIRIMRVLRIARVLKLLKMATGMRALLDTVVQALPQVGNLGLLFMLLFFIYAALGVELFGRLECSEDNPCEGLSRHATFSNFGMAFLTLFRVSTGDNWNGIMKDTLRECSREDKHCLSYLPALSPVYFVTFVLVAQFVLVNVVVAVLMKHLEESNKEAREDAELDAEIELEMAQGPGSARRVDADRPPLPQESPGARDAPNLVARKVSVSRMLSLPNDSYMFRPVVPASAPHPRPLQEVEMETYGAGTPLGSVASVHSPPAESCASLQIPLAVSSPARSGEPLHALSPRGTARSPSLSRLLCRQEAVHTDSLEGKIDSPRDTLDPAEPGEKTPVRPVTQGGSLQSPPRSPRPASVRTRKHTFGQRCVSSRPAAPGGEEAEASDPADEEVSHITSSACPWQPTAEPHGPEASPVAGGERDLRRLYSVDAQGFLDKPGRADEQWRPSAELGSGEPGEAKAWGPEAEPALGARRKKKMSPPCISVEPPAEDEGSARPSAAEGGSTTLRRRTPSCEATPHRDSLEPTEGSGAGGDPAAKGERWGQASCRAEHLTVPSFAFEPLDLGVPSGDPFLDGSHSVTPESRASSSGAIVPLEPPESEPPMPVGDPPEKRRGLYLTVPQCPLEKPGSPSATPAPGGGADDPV

On to `NC1=N[C@H](O)[C@H]2[C@H]3O[C@]4(O)O[C@@H]([C@@H](O)[C@@]2(N1)[C@@H]4O)[C@]3(O)CO` [TTX, tetrodotoxin], for which the “effect on mechanical allodynic behavior” value in the assay with rats is given as “significantly reduces mechanical allodynic behavior”.

`CCN(CC)CC(=O)Nc1c(C)cccc1C` [lidocaine]: in the assay with chronic pain, the “effect on chronic pain” value was “effective to treat chronic pain”. With `C[C@@H](NC(=O)C1CC1c1cc2ccccc2[nH]1)c1ccc(OCC(F)(F)F)cn1` (stereo in doubt) [Example 124, trans-2-(1H-indol-2-yl)-N-((R)-1-(5-(2,2,2-trifluoroethoxy)pyridin-2-yl)ethyl)cyclopropanecarboxamide], the IC50 in assay [1] is ≤ 300 nM. Still for that read-out and setting: to `C[C@@H](NC(=O)[C@H]1C[C@@H]1c1ccc(F)cc1Cl)c1cnc(OCC(F)(F)F)cn1` (relative stereo) [Example 268, (1S*,2S*)-2-(2-chloro-4-fluorophenyl)-N-((R)-1-(5-(2,2,2-trifluoroethoxy)pyrazin-2-yl)ethyl)cyclopropanecarboxamide] belongs ≤ 300 nM; to `Cc1cccc([C@H]2C[C@@H]2C(=O)N[C@H](C)c2ccc(OCC3CC3)cn2)c1` (relative stereo) [Example 267, (1S*,2S*)-N-((R)-1-(5-(cyclopropylmethoxy)pyridin-2-yl)ethyl)-2-m-tolylcyclopropanecarboxamide], ≤ 300 nM; to `C[C@@H](NC(=O)C1CC1c1c[nH]c2ccc(C#N)cc12)c1ccc(OCC(F)(F)F)cn1` (stereo in doubt) [Example 111, trans-2-(5-cyano-1H-indol-3-yl)-N-((R)-1-(5-(2,2,2-trifluoroethoxy)pyridin-2-yl)ethyl)cyclopropanecarboxamide], ≤ 300 nM. For `COc1cccc([C@H]2C[C@@H]2C(=O)N[C@H](C)c2ccc(OCC(F)(F)F)cn2)c1` (relative stereo) [Example 258, (1S*,2S*)-2-(3-methoxyphenyl)-N-((R)-1-(5-(2,2,2-trifluoroethoxy)pyridin-2-yl)ethyl)cyclopropanecarboxamide], in assay [1], the IC50 is ≤ 300 nM. In the case of `C[C@@H](NC(=O)C1CC1c1cc2cc(F)ccc2[nH]1)c1ccc(OCC(F)(F)F)cn1` (stereo in doubt) [Example 125, trans-2-(5-fluoro-1H-indol-2-yl)-N-((R)-1-(5-(2,2,2-trifluoroethoxy)pyridin-2-yl)ethyl)cyclopropanecarboxamide], the IC50 in assay [1] is ≤ 300 nM.

As for `C[C@@H](NC(=O)[C@@H]1C[C@H]1c1nc2cc(F)ccc2[nH]1)c1ccc(OCC(F)(F)F)nc1` (relative stereo) [Example 289, (1R*,2R*)-2-(5-fluoro-1H-benzo[d]imidazol-2-yl)-N-((R)-1-(6-(2,2,2-trifluoroethoxy)pyridin-3-yl)ethyl) cyclopropanecarboxamide], the half-maximal inhibitory concentration (IC50) in assay [1] was ≤ 300 nM. Still for that read-out and setting: to `C[C@@H](NC(=O)[C@H]1C[C@@H]1c1ccc2cc[nH]c2c1)c1ccc(OCC(F)(F)F)cn1` (relative stereo) [Example 203, (1S*,2S*)-2-(1H-indol-6-yl)-N-((R)-1-(5-(2,2,2-trifluoroethoxy)pyridin-2-yl)ethyl)cyclopropanecarboxamide] belongs ≤ 300 nM.

Take `C[C@@H](NC(=O)COc1ccc(C(F)(F)F)cc1)c1ccc(OCC(F)(F)F)cn1` [Example 3, (R)-N-(1-(5-(2,2,2-trifluoroethoxy)pyridin-2-yl)ethyl)-2-(4-(trifluoromethyl)phenoxy)acetamide]: the IC50 in assay [1] was ≤ 300 nM. For the compound `Cc1cccc([C@H]2C[C@@H]2C(=O)N[C@H](C)c2cnc(OCC(F)(F)F)cn2)c1` (relative stereo) [Example 273, (1S*,2S*)-2-m-tolyl-N-((R)-1-(5-(2,2,2-trifluoroethoxy)pyrazin-2-yl)ethyl)cyclopropanecarboxamide], the IC50 in assay [1] was ≤ 300 nM. `C[C@@H](NC(=O)C1CC1c1ccc2cnn(C)c2c1)c1ccc(OCC(F)(F)F)nc1` (stereo partly drawn) [Example 228, trans-2-(1-methyl-1H-indazol-6-yl)-N-((R)-(6-(2,2,2-trifluoroethoxy)pyridin-3-yl)ethyl)cyclopropanecarboxamide]: the IC50 in assay [1] is ≤ 300 nM.

For `C[C@@H](NC(=O)[C@@H]1C[C@H]1c1c(F)cc(F)cc1F)c1ccc(OCC2CC2)cn1` (relative stereo) [Example 266], the IC50 in assay [1] is ≤ 300 nM.
